Measurements published in patent US12616706B2, “Compositions and methods of use comprising substances with neural plasticity actions administered at non-psychedelic/psychotomimetic dosages and formulations” (Arbormentis LLC, priority 2019, dated 2026).
Where two headings read alike, the source gives them in different places.

Legend:
NMDAR2A = NMDAR2A protein expression in ARPE-19 cells (immunofluorescence); type: cell-based; conditions: chronic treatment with psilocin carbamate for 96 hours
Description: (§1) First, the present inventors assessed the expression of three NMDAR subunits (NMDAR1, NMDAR2A, NMDAR2B) and two 5-HT2 subtypes (5-HT2A, 5-HT2C) by immunofluorescence coupled to confocal microscopy. 7,500 cells/well were plated in a 24-well plate on sterile glass coverslips. The next day, the immunofluorescence analysis was performed. The following primary antibodies were used: anti-NMDAR1A (Abcam, ab68144), NMDAR2A (Bioss, bs-3507R-TR), NMDAR2B (Bioss, bs-0222R-TR), 5-HT2A (Bioss, bs-12049R), 5-HT2C (Bioss, 2959R), and the secondary antibody goat anti-rabbit IgG (GeneTex, GTX213110-04). The images of the immunostained cells were acquired by means of a confocal microscope Zeiss LSM 800, using a 63× magnification and can be seen in FIGS. 9A-9E. ImageJ software was used to quantify the intensity of the fluorescent signal.
(§2) 7,500 cells/well were plated in a 24-well plate on sterile glass coverslips. […] After 6 days an immunofluorescence analysis coupled to confocal microscopy was performed with the primary and secondary antibodies described above.

[1] = Body and liver weight at sacrifice, mice; type: in vivo, mouse; conditions: 0.05 mg/kg daily
Description: (§3) Mice were fed with standard diet and fructose (30% w/v in drinking water) was added to their diet 4 days before randomization.

c57BL/6 male mice [2] = assay: Locomotion Activity Test (LMA), mice; type: in vivo, mouse; conditions: chronic (14 day) low dose 0.05 mg/Kg
Description: In order to ascertain whether the chronic administration of low dose psilocin-carbamate alters behavior in tested mice, the present inventors performed the Locomotion Activity Test (LMA), the Novelty Suppressed Feeding (NSF) test and the olfactory habitation/dishabituation test before and after the psilocin-carbamate treatment.
(§4) LMA has the aim of assessing spontaneous locomotor activity in laboratory animals. This test is performed in a gray arena (open field) exposed to light of regulated intensity (24 and 30 lux), avoiding light-shadow zones within the perimeter in which the experiment takes place. Along the base of the open field, 4 standard sized squares have been drawn, clearly visible even in the dark and large enough to allow the animal to remain inside them in all its length. The LMA test has been preceded by one hour of habituation, at the end of which the rat was inserted inside the open field, in one of the previously designed squares. The movements and behaviors in reaction to the environment were then recorded for 10 minutes.
Three fundamental aspects were assessed: 1. the number of crossings, i.e., the number of crossings made by the animal from one square to another, passing the line defining it with both legs. […]

p70 = p70 protein expression in lateral cortex (Western blot); type: in vivo, mouse; conditions: not detected in adult mice
Description: (§5) Mice were euthanized by cervical dislocation. Immediately after the sample, fresh tissues were cut isolating 4 brain regions (cerebellum, lateral cortex, olfactory bulb, and the remaining brain), quickly collected and put in cryovials in liquid nitrogen and then kept at −80° C.
(§6) Brain tissues were lysed in RIPA lysis buffer (Invitrogen) and 1% (v/v) protease and phosphatase inhibitor cocktail (Sigma). Proteins were extracted by centrifugation at 14000 rpm at 4° C. for 30 minutes. Bicinchoninic Acid Assay (BCA) kit (1113 catalog #23225 Thermo-Scientific) was used to determine the protein concentration following the manufacturer's instructions. Western blot analyses to determine NMDAR 1 (primary antibody: Abcam, ab68144), PSD95 (Bioss, bs-0179R-TR), p70 (Bioss, bs-3498R-TR) and synapsin 1 (Bioss, bs-3501 R-TR) protein expression were performed using 30 μg per lane of nuclear or lateral cortex lysates. SDS-PAGE was performed on 8% polyacrylamide gels in reducing-denaturing condition and proteins were transferred to a 0.45 μm nitrocellulose membrane (BioRad Laboratories). Signal intensity of immunoreactive bands was analyzed by the Quantity One software (Bio-Rad Laboratories S.r.l.) and was normalized to that of the loading control GAPDH.

c57BL/6 male mice [3] = assay: Toxicity and tolerability observation, high fructose mice; type: in vivo, mouse; conditions: young
Description: as §3
During the experiment, the animals were carefully monitored every day for a period not exceeding the maximum experimental endpoints. Access to water (30% w/v fructose) and food ad libitum was allowed. No obvious clinical symptoms were observed during the experimental period.

NMDAR1 = NMDAR1 protein expression in lateral cortex (Western blot); type: in vivo, mouse; conditions: 0.05 mg/kg daily
Description: as §5, §6

synapsin 1 = assay: Synapsin 1 protein expression in lateral cortex (Western blot); type: in vivo, mouse; conditions: adult mice; not significant
Description: as §5, §6

PSD95 = PSD95 protein expression in lateral cortex (Western blot); type: in vivo, mouse; conditions: not significant
Description: as §5, §6

[4] = Blood glucose after 2-hours fasting, mice; type: in vivo, mouse; conditions: 0.05 mg/kg daily
Description: as §3
Before sacrifice, the present inventors measured the blood glucose concentration of the mice after a 2-hours fasting.

NMDAR2B = NMDAR2B protein expression in ARPE-19 cells (immunofluorescence); type: cell-based; conditions: chronic treatment with psilocin carbamate for 96 hours
Description: as §1, §2

Western Diet fed rats [5] = assay: Liver histology (hematoxylin-eosin), hepatic steatosis; conditions: WD rats, 0.05 mg/kg 15 days; median (range in next column); WD alone 15
[6] = parameters: AUC: unit not given beside the values; conditions: cited from earlier work
[7] = system: Ki67 positive cells in the subventricular zone; assay: Neurogenesis in SVZ, Ki67 positive cells; type: in vivo, rat; conditions: WD rats, 0.05 mg/Kg gastric gavage 15 days; WD 2722±225, SD 4601±17
Description: Methods: To perform immunohistochemistry, rats were euthanized and then perfused with 0.9% saline followed by 4% paraformaldehyde (PFA) in 1× phosphate saline buffer (PBS) (rats n tot=8, n=2 for each condition). Rats brains were promptly dissected and then post-fixed in 4% PFA for 48 hours. Brains were embedded in 2.5% agarose (Sigma-Aldrich) and then sectioned in sagittal sections (40 μm thick) at the vibratome (Vibratome VT1000S, Leica). Sagittal brain sections including the subventricular zone, were treated with a blocking solution of 10% normal goat serum (Jackson ImmunoResearch) in 1×PBS for 1 hour and then stained with rabbit anti-Ki67 monoclonal antibody (Abcam, AB 16667) (1:200) overnight. […] Brain sections were mounted with Aqua-Poly/Mount (Polysciences). Images of the sagittal sections containing the subventricular zone were acquired at the confocal microscope (Zeiss LSM 700) equipped with an EC Plan-Neofluar 20×/0.50 M27 objective (Zeiss). Ki67 positive cells were counted along the lateral wall of the lateral ventricles in rat brain sagittal sections, using ImageJ software (RRID: nif-000030467).

Western Diet fed rats [8] = assay: Locomotion Activity Test (LMA), WD rats; type: in vivo, rat; conditions: chronic (15 day) low dose 0.05 mg/Kg
Description: as §4, with “In order to ascertain whether the chronic administration of low dose psilocybin alters behavior in WD fed rats, the present inventors performed the Locomotion Activity Test (LMA) before and after the psilocybin treatment (see FIGS. 7A-7C). This test has” for “LMA has”
In the LMA test, three fundamental aspects were assessed: 1. the number of crossings, i.e., the number of crossings made by the animal from one square to another, passing the line defining it with both legs. This value gives an indication of the distance traveled by the animal during the test and of its locomotor activity; 2. the number of rearings, i.e, the number of times the animal lifts up on the two posterior legs. […]

[9] = psilocybin 10, 20, 30 mg; cited from earlier work

## CC[C@H](C)[C@H](NC(=O)Oc1cccc2[nH]cc(CCN(C)C)c12)C(=O)O [psilocin-carbamate]
NMDAR2A
  NMDAR2A expression: reduction
[1]; adult mice
  Liver weight at sacrifice: decrease
[1]; adult mice, p<0.05
  Body weight at sacrifice: decrease
[1]; young mice
  Body and liver weight: no effect
c57BL/6 male mice [2]
  Psychedelic behavioral effects: no evidence of psychedelic behavioral effects
p70
  p70 protein expression, lateral cortex: no significant differences
c57BL/6 male mice [3]; 0.05 mg/kg daily for 14 days, adult and old mice
  Safety and tolerability: safe and well-tolerated
c57BL/6 male mice [3]; adult, old mice, 0.05 mg/kg gastric gavage, 14 days
  Signs of toxicity and mortality: No signs of toxicity and no mortality
NMDAR1; adult mice
  NMDAR1 protein expression, lateral cortex: tended to decrease
NMDAR1; young and old mice
  NMDAR1 protein expression, lateral cortex: tended to increase
Synapsin 1
  Synapsin 1 protein expression, lateral cortex: tended to increase
PSD95; adult mice, tendency
  PSD95 protein expression, lateral cortex: decrease
PSD95; young mice
  PSD95 protein expression, lateral cortex: tended to increase
[4]; mice
  Blood glucose control: no effect
[4]; old mice
  Blood glucose concentration: tendency towards a lower blood glucose concentration
NMDAR2B
  NMDAR2B expression: reduction

## CN(C)CCc1c[nH]c2cccc(OP(=O)(O)O)c12 [psilocybin]
Western Diet fed rats [5]
  % Hepatic macrovescicular steatosis: 5%
[6]; 1 mg IV psilocybin
  AUC: 240+−55
  Cmax: 12.9+−5.6 ng/ml
[6]; oral psilocybin 10-20 mg
  AUC: 1963+−659
  Cmax: 8.2+−2.8 ng/ml
  Tmax: 105+−37 min
[7]
  New cells (Ki67 positive) in SVZ, n: 3404±199
Western Diet fed rats [8]
  Psychedelic behavioral effects: no evidence of psychedelic behavioral effects
[9]
  Psychomotor performance, working memory, episodic memory, associative learning, visual perception: dose-dependent negative effects
